# From ChEMBL document CHEMBL4715700, “Growth inhibitory effect of D-arabinose against the nematode Caenorhabditis elegans: Discovery of a novel bioactive monosaccharide” (Bioorg Med Chem Lett, 2016)
# pIC50: −log10 of the molar value. The source made the active and inactive calls. No cut-off for these calls is given here.
# Columns and labels:
# Caenorhabditis elegans [1] = assay: Growth inhibition of Caenorhabditis elegans N2 L1 larvae under monoxenic condition assessed as reduction in body size at 42 mM incubated for 72 hrs by microscopic method relative to control; format: functional, organism-based; conditions: for pIC50: N2, 72 h
# Caenorhabditis elegans [2] = assay: Growth inhibition of Caenorhabditis elegans N2 L1 larvae under monoxenic condition with Escherichia coli food assessed as reduction in body size at 42 mM incubated for 72 hrs by microscopic method relative to control; format: functional
# Caenorhabditis elegans [3] = assay: Growth inhibition of Caenorhabditis elegans N2 L1 larvae under axenic condition assessed as reduction in body size at 16 mM incubated for 7 days by microscopic method relative to control; format: functional; parameters: scale not given: the % may be the effect or the level left; conditions: time 7 day
# Caenorhabditis elegans [4] = assay: Growth inhibition of Caenorhabditis elegans N2 L1 larvae under monoxenic condition with Escherichia coli food assessed as reduction in motility at 42 mM incubated for 72 hrs by microscopic method relative to control; format: functional, organism-based
# [5] = Toxicity in Caenorhabditis elegans N2 under monoxenic condition with Escherichia coli food assessed as mortality at 42 mM incubated for 72 hrs by microscopic method relative to control; conditions: 42000 µM
# Caenorhabditis elegans [6] = assay: Growth inhibition of Caenorhabditis elegans N2 assessed as reduction in body size at 10 mM in presence of D-ribose by microscopic method; format: functional, organism-based
# Caenorhabditis elegans [7] = assay: Growth inhibition of Caenorhabditis elegans N2 assessed as reduction in body size at 10 mM in presence of 125 mM D-glucose by microscopic method; format: functional, organism-based
# Caenorhabditis elegans [8] = assay: Growth inhibition of Caenorhabditis elegans N2 assessed as reduction in body size at 10 mM in presence of D-fructose by microscopic method; format: functional, organism-based
structure (smiles),measurement,setting,value
OC[C@H]1OC(O)C[C@@H](O)[C@@H]1O (stereo partly drawn),pIC50,Caenorhabditis elegans [1],1.71
OC[C@@H](O)C(O)[C@H](O)CO,Activity,Caenorhabditis elegans [2],inactive
OC1OC[C@H](O)[C@@H](O)[C@@H]1O (stereo partly drawn),Activity,Caenorhabditis elegans [2],inactive
OC[C@@H]1OC(O)[C@@H](O)[C@H]1O (stereo partly drawn),Activity,Caenorhabditis elegans [2],inactive
OC1OC[C@@H](O)[C@@H](O)[C@@H]1O (stereo partly drawn) [D-ARABINOSE],Activity,Caenorhabditis elegans [3],15.2%
same,Activity,Caenorhabditis elegans [2],7.8%
same,Activity,Caenorhabditis elegans [4],Active
same,Activity,[5],Non-Toxic
same,Activity,Caenorhabditis elegans [1],Dose-dependent effect
same,pIC50,Caenorhabditis elegans [1],2.12
same,Activity,Caenorhabditis elegans [6],inactive
same,Activity,Caenorhabditis elegans [7],Active
same,Activity,Caenorhabditis elegans [8],inactive
OC1OC[C@@H](O)[C@H](O)[C@@H]1O (stereo partly drawn),Activity,Caenorhabditis elegans [2],inactive
O=C[C@H](O)[C@@H](O)[C@H](O)CO,Activity,Caenorhabditis elegans [2],inactive
OC1OC[C@H](O)[C@@H](O)[C@H]1O (stereo partly drawn),Activity,Caenorhabditis elegans [2],inactive
OC[C@H]1OC(O)[C@H](O)[C@@H]1O (stereo partly drawn),Activity,Caenorhabditis elegans [2],inactive
OC1OC[C@H](O)[C@H](O)[C@H]1O (stereo partly drawn),Activity,Caenorhabditis elegans [2],inactive
